Experimental findings from the kinase profiling compilation of Christmann-Franck et al. (2016) are described below.

PAK4 (human), sequence (O96013 whole entry, looked up): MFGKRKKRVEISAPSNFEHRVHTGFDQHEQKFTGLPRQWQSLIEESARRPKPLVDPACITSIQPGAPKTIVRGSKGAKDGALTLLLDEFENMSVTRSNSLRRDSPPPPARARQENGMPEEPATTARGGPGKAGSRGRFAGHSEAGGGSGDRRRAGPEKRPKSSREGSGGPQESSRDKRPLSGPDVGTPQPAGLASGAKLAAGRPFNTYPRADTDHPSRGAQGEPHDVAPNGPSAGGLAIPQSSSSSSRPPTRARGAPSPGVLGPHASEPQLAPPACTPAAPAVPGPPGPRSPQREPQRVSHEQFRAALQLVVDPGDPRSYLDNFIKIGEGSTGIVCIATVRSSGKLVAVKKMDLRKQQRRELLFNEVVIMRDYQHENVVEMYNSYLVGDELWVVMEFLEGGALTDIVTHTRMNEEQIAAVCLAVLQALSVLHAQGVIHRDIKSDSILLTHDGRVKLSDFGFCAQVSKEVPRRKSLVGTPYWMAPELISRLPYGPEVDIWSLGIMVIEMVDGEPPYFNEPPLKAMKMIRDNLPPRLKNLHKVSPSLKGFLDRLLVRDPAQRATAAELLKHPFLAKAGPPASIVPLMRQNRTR
MAPK13 (human), sequence (O15264 whole entry, looked up): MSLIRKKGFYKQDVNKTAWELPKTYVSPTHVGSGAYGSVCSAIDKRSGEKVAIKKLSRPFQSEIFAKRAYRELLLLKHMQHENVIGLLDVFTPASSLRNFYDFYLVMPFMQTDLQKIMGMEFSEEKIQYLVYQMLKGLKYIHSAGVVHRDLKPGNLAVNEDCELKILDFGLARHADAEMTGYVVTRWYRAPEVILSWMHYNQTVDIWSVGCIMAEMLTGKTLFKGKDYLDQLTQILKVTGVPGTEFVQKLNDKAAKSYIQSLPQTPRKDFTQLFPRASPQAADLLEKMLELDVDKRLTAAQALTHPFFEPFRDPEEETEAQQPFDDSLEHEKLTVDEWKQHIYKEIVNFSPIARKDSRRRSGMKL

The first test addresses MAP3K9 (human) (UniProt P80192). The test is described as follows: radiometric filter-binding kinase assay, Kinase HotSpot. To be noted: compound 0.5 µM; ATP 10 µM.
For the compound `O=C1NC(=O)/C(=C\c2ccc3nccnc3c2)S1`, the residual activity came to 102%.

Consider `CC(C)c1nn(-c2c(Cl)cccc2Cl)c2nc(Cc3ccc(OCCO)cc3)nc(O)c12`, for which the residual activity stood at 95.7%.

The next test concerns the target MAPK1 (human) (UniProt P28482). Described as above. To be noted: compound 0.5 µM; ATP 10 µM.
In the case of `COc1ccc(OC)c2c(=S)c3ccccc3[nH]c12`, the residual activity came to 91.5%.

`O=C1NC(=O)/C(=C\c2ccc3nccnc3c2)S1`: the residual activity came out at 85.2%.

Take `CC(C)c1nn(-c2c(Cl)cccc2Cl)c2nc(Cc3ccc(OCCO)cc3)nc(O)c12`: the residual activity is 91.7%.

The target of another test is MAPK12 (human) (UniProt P53778). The test is described as above. To be noted: compound 0.5 µM; ATP 10 µM.
For `COc1ccc(OC)c2c(=S)c3ccccc3[nH]c12`, the residual activity came to 98.1%.

`O=C1NC(=O)/C(=C\c2ccc3nccnc3c2)S1`: the residual activity came to 96.6%.

In the case of `CC(C)c1nn(-c2c(Cl)cccc2Cl)c2nc(Cc3ccc(OCCO)cc3)nc(O)c12`, the residual activity is 103%.

A further test has as its target MAPK13 (human) (UniProt O15264). The test is described as above. To be noted: compound 0.5 µM; ATP 10 µM.
Take `COc1ccc(OC)c2c(=S)c3ccccc3[nH]c12`: the residual activity was 103%.

For the compound `O=C1NC(=O)/C(=C\c2ccc3nccnc3c2)S1`, the residual activity amounted to 99.1%.

Turning to `CC(C)c1nn(-c2c(Cl)cccc2Cl)c2nc(Cc3ccc(OCCO)cc3)nc(O)c12`, the residual activity is 104%.

In a further test the target is MKNK2 (human) (UniProt Q9HBH9). Described as above. The following applies: compound 0.5 µM; ATP 10 µM.
On to `COc1ccc(OC)c2c(=S)c3ccccc3[nH]c12`, for which the residual activity was found to be 86.2%.

With `O=C1NC(=O)/C(=C\c2ccc3nccnc3c2)S1`, the residual activity was 98.2%.

In the case of `CC(C)c1nn(-c2c(Cl)cccc2Cl)c2nc(Cc3ccc(OCCO)cc3)nc(O)c12`, the residual activity was found to be 88.9%.

The target in the next test is NTRK2 (human) (UniProt Q16620). Described as above. The following applies: compound 0.5 µM; ATP 10 µM.
As to `COc1ccc(OC)c2c(=S)c3ccccc3[nH]c12`, the residual activity stood at 94%.

For `O=C1NC(=O)/C(=C\c2ccc3nccnc3c2)S1`, the residual activity came out at 90.7%.

For `CC(C)c1nn(-c2c(Cl)cccc2Cl)c2nc(Cc3ccc(OCCO)cc3)nc(O)c12`, the residual activity was determined as 101%.

A further test has as its target PAK4 (human) (UniProt O96013). Described as above. To be noted: compound 0.5 µM; ATP 10 µM.
Regarding `COc1ccc(OC)c2c(=S)c3ccccc3[nH]c12`, the residual activity stood at 102%.

As for `O=C1NC(=O)/C(=C\c2ccc3nccnc3c2)S1`, the residual activity was 88.5%.

For `CC(C)c1nn(-c2c(Cl)cccc2Cl)c2nc(Cc3ccc(OCCO)cc3)nc(O)c12`, the residual activity came out at 106%.

For another test, the target named is PIM2 (human) (UniProt Q9P1W9). The test is described as above. The following applies: compound 0.5 µM; ATP 10 µM.
In the case of `COc1ccc(OC)c2c(=S)c3ccccc3[nH]c12`, the residual activity came to 103%.

With `O=C1NC(=O)/C(=C\c2ccc3nccnc3c2)S1`, the residual activity turned out to be 100%.

On to `CC(C)c1nn(-c2c(Cl)cccc2Cl)c2nc(Cc3ccc(OCCO)cc3)nc(O)c12`, for which the residual activity was found to be 104%.

In another test the target is PIM3 (human) (UniProt Q86V86). Described as above. To be noted: compound 0.5 µM; ATP 10 µM.
With `COc1ccc(OC)c2c(=S)c3ccccc3[nH]c12`, the residual activity came to 93.1%.

Regarding `O=C1NC(=O)/C(=C\c2ccc3nccnc3c2)S1`, the residual activity was determined as 67.3%.

`CC(C)c1nn(-c2c(Cl)cccc2Cl)c2nc(Cc3ccc(OCCO)cc3)nc(O)c12`: the residual activity worked out at 105%.

The next test deals with PRKCD (human) (UniProt Q05655). Described as above. To be noted: compound 0.5 µM; ATP 10 µM.
PRKCD (human), sequence (Q05655 whole entry, looked up): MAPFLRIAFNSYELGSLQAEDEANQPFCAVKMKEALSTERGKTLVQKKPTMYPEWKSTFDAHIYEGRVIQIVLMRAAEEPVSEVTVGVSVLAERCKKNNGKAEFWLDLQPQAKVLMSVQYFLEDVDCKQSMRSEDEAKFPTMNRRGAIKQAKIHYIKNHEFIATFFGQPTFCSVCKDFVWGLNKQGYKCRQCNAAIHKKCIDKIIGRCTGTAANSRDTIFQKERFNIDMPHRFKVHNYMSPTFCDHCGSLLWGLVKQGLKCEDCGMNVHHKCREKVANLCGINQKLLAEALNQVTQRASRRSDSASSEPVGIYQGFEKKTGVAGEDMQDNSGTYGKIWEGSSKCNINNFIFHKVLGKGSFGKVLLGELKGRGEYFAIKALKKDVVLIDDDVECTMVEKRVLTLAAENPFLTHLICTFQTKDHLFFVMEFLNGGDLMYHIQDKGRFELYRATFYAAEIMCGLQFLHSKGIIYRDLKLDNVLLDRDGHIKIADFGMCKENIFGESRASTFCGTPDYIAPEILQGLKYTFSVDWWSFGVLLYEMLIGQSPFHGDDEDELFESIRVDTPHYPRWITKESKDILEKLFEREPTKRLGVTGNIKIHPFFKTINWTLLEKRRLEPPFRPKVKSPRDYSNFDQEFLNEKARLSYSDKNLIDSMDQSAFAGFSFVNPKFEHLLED
As to `COc1ccc(OC)c2c(=S)c3ccccc3[nH]c12`, the residual activity was determined as 103%.

Turning to `O=C1NC(=O)/C(=C\c2ccc3nccnc3c2)S1`, the residual activity came out at 94.4%.

With `CC(C)c1nn(-c2c(Cl)cccc2Cl)c2nc(Cc3ccc(OCCO)cc3)nc(O)c12`, the residual activity was determined as 108%.

The next test addresses PRKCG (human) (UniProt P05129). Described as above. To be noted: compound 0.5 µM; ATP 10 µM.
For `COc1ccc(OC)c2c(=S)c3ccccc3[nH]c12`, the residual activity was 77.6%.

Consider `O=C1NC(=O)/C(=C\c2ccc3nccnc3c2)S1`, for which the residual activity is 105%.

With `CC(C)c1nn(-c2c(Cl)cccc2Cl)c2nc(Cc3ccc(OCCO)cc3)nc(O)c12`, the residual activity came out at 81.1%.

For another test, the target named is PRKG2 (human) (UniProt Q13237). Described as above. The following applies: compound 0.5 µM; ATP 10 µM.
`COc1ccc(OC)c2c(=S)c3ccccc3[nH]c12`: the residual activity was determined as 62.2%.

On to `O=C1NC(=O)/C(=C\c2ccc3nccnc3c2)S1`, for which the residual activity was determined as 106%.

For `CC(C)c1nn(-c2c(Cl)cccc2Cl)c2nc(Cc3ccc(OCCO)cc3)nc(O)c12`, the residual activity was determined as 61.6%.

For another test, the target named is RAF1 (human) (UniProt P04049). Described as above. To be noted: compound 0.5 µM; ATP 10 µM.
Take `COc1ccc(OC)c2c(=S)c3ccccc3[nH]c12`: the residual activity stood at 88.2%.

Turning to `O=C1NC(=O)/C(=C\c2ccc3nccnc3c2)S1`, the residual activity amounted to 92.3%.

Regarding `CC(C)c1nn(-c2c(Cl)cccc2Cl)c2nc(Cc3ccc(OCCO)cc3)nc(O)c12`, the residual activity came to 95.8%.

The next test concerns the target RPS6KA5 KD2 (human) (UniProt O75582). The test is described as above. To be noted: compound 0.5 µM; ATP 10 µM.
As to `COc1ccc(OC)c2c(=S)c3ccccc3[nH]c12`, the residual activity is 86%.

With `O=C1NC(=O)/C(=C\c2ccc3nccnc3c2)S1`, the residual activity was determined as 87.8%.

For the compound `CC(C)c1nn(-c2c(Cl)cccc2Cl)c2nc(Cc3ccc(OCCO)cc3)nc(O)c12`, the residual activity came out at 85.6%.

The target of a further test is RPS6KA6 KD1 KD2 (human) (UniProt Q9UK32). The test is described as above. To be noted: compound 0.5 µM; ATP 10 µM.
RPS6KA6 KD1 KD2 (human), sequence (Q9UK32 whole entry, looked up): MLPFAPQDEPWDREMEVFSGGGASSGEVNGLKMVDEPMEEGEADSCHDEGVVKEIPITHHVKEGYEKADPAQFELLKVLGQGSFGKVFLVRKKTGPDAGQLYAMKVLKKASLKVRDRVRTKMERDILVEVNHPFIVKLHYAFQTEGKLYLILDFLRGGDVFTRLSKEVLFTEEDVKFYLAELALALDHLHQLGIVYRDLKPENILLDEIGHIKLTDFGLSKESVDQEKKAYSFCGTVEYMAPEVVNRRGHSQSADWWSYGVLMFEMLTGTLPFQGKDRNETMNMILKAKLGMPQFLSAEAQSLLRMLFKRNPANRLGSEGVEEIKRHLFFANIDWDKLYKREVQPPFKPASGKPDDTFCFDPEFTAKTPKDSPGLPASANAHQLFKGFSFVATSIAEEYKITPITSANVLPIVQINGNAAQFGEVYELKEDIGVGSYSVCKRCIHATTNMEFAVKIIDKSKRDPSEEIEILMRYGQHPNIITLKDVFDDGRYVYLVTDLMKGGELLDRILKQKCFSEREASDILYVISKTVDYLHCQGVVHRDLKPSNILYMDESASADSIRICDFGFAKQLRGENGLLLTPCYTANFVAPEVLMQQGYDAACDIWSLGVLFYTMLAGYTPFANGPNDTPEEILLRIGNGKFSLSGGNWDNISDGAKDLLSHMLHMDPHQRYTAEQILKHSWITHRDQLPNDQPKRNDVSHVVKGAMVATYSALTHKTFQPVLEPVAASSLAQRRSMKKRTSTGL
In the case of `COc1ccc(OC)c2c(=S)c3ccccc3[nH]c12`, the residual activity worked out at 85.2%.

For the compound `O=C1NC(=O)/C(=C\c2ccc3nccnc3c2)S1`, the residual activity came out at 87.6%.

`CC(C)c1nn(-c2c(Cl)cccc2Cl)c2nc(Cc3ccc(OCCO)cc3)nc(O)c12`: the residual activity was found to be 84.8%.

A further test addresses SGK2 (human) (UniProt Q9HBY8). Described as above. The following applies: compound 0.5 µM; ATP 10 µM.
As for `COc1ccc(OC)c2c(=S)c3ccccc3[nH]c12`, the residual activity was 96.5%.

`O=C1NC(=O)/C(=C\c2ccc3nccnc3c2)S1`: the residual activity was found to be 99.3%.

In the case of `CC(C)c1nn(-c2c(Cl)cccc2Cl)c2nc(Cc3ccc(OCCO)cc3)nc(O)c12`, the residual activity came to 101%.

In a further test the target is SRC (human) (UniProt P12931). The description is as above. The following applies: compound 0.5 µM; ATP 10 µM.
For `COc1ccc(OC)c2c(=S)c3ccccc3[nH]c12`, the residual activity stood at 90.6%.

Consider `O=C1NC(=O)/C(=C\c2ccc3nccnc3c2)S1`, for which the residual activity was determined as 102%.

Take `CC(C)c1nn(-c2c(Cl)cccc2Cl)c2nc(Cc3ccc(OCCO)cc3)nc(O)c12`: the residual activity was found to be 86.7%.

The target of another test is STK33 (human) (UniProt Q9BYT3). Described as above. To be noted: compound 0.5 µM; ATP 10 µM.
In the case of `COc1ccc(OC)c2c(=S)c3ccccc3[nH]c12`, the residual activity was 98.4%.

On to `O=C1NC(=O)/C(=C\c2ccc3nccnc3c2)S1`, for which the residual activity came to 66.3%.

With `CC(C)c1nn(-c2c(Cl)cccc2Cl)c2nc(Cc3ccc(OCCO)cc3)nc(O)c12`, the residual activity is 97.5%.

A further test has as its target TSSK1B (human) (UniProt Q9BXA7). The test is described as above. To be noted: compound 0.5 µM; ATP 10 µM.
For the compound `COc1ccc(OC)c2c(=S)c3ccccc3[nH]c12`, the residual activity was determined as 114%.

For the compound `O=C1NC(=O)/C(=C\c2ccc3nccnc3c2)S1`, the residual activity came out at 78.6%.

For `CC(C)c1nn(-c2c(Cl)cccc2Cl)c2nc(Cc3ccc(OCCO)cc3)nc(O)c12`, the residual activity stood at 104%.

For the next test, the target named is TYK2 JH1 catalytic (human) (UniProt P29597). Described as above. To be noted: compound 0.5 µM; ATP 10 µM.
Regarding `COc1ccc(OC)c2c(=S)c3ccccc3[nH]c12`, the residual activity was determined as 108%.

As to `O=C1NC(=O)/C(=C\c2ccc3nccnc3c2)S1`, the residual activity was 85.2%.

Consider `CC(C)c1nn(-c2c(Cl)cccc2Cl)c2nc(Cc3ccc(OCCO)cc3)nc(O)c12`, for which the residual activity was 111%.

The next test deals with WNK3 (human) (UniProt Q9BYP7). Described as above. To be noted: compound 0.5 µM; ATP 10 µM.
WNK3 (human), sequence (Q9BYP7 whole entry, looked up): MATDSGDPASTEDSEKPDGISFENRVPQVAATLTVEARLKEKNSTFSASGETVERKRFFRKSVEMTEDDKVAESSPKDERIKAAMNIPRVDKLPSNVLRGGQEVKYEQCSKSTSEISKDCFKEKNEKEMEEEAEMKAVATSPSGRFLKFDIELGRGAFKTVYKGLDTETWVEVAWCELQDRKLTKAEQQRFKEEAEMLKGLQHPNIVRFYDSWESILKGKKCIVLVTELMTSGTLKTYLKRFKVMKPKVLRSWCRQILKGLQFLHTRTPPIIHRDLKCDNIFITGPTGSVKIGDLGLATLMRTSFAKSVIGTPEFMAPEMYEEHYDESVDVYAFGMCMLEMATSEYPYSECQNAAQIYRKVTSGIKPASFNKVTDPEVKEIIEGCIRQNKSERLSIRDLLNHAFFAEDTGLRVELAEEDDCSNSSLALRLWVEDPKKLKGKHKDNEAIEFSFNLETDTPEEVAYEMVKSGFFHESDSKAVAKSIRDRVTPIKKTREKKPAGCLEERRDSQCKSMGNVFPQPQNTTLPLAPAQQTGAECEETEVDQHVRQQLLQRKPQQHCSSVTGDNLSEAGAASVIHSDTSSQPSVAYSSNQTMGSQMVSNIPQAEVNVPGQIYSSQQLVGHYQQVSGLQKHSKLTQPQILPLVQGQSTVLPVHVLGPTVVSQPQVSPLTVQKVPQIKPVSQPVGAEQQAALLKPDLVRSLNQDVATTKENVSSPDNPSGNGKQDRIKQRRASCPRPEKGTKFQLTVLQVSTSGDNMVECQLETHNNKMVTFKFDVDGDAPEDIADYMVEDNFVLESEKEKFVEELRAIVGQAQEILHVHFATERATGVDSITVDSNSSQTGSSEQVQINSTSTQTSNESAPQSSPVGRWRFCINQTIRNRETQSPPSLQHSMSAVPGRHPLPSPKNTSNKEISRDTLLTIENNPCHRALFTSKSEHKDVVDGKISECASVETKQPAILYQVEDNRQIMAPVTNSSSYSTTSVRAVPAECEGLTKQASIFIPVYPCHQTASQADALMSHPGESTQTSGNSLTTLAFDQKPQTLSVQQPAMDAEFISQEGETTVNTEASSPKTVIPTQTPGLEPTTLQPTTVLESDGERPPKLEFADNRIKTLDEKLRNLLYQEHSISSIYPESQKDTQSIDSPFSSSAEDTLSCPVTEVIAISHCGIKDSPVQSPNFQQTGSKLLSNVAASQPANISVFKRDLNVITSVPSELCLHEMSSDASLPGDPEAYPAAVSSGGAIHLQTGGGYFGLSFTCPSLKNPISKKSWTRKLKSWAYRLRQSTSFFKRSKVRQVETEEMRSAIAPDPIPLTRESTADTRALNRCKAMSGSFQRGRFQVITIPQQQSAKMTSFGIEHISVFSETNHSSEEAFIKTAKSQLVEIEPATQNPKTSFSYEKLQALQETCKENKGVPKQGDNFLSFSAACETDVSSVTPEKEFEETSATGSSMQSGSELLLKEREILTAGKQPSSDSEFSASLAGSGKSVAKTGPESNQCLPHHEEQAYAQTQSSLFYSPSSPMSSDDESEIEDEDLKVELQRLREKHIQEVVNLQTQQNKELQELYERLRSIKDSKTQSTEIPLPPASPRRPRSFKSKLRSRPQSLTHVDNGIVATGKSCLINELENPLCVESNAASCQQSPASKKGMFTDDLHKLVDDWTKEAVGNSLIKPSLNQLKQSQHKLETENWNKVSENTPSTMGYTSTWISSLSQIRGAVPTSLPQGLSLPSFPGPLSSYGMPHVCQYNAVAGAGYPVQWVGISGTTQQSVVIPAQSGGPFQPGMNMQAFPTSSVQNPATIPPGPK
In the case of `COc1ccc(OC)c2c(=S)c3ccccc3[nH]c12`, the residual activity is 99.1%.

With `O=C1NC(=O)/C(=C\c2ccc3nccnc3c2)S1`, the residual activity turned out to be 85.8%.

Take `CC(C)c1nn(-c2c(Cl)cccc2Cl)c2nc(Cc3ccc(OCCO)cc3)nc(O)c12`: the residual activity was 96.7%.
